Reference: PubChem BioAssay AID1963865 (Molecular Pharmacology Branch, DTP, NCI, 2024)

Test system: KRAS PDC multicell spheroid viability
Experiment: Anticancer human tumor 825966-067-R-J1-PDC patient-derived colon carcinoma cell line growth inhibition [KRAS2]
Settings: for IC50: curve of first compound; for viability, T/C: stronger effect = lower value
Summary of the method: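 KRAS-mutant tumor cells were grown as spheroids with HUVEC endothelial cells and human MSCs as stroma. Targeted agents were tested alone and with KRAS pathway inhibitors. Doses started at or near clinical Cmax, or 10 microM, descending half-log.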

[1] = second compound 0.1 µM, first compound 0.0316 µM
[2] = second compound 0.1 µM, first compound 0.1 µM
[3] = second compound 0.1 µM, first compound 0.316 µM
[4] = second compound 0.1 µM, first compound 1 µM
[5] = second compound 0.1 µM, first compound 3.16 µM
[6] = second compound 0.316 µM, first compound 0.0316 µM
[7] = second compound 0.316 µM, first compound 0.1 µM
[8] = second compound 0.316 µM, first compound 0.316 µM
[9] = second compound 0.316 µM, first compound 1 µM
[10] = second compound 0.316 µM, first compound 3.16 µM
[11] = second compound 1 µM, first compound 0.0316 µM
[12] = second compound 1 µM, first compound 0.1 µM
[13] = second compound 1 µM, first compound 0.316 µM
[14] = second compound 1 µM, first compound 1 µM
[15] = second compound 1 µM, first compound 3.16 µM
[16] = second compound 3.16 µM, first compound 0.0316 µM
[17] = second compound 3.16 µM, first compound 0.1 µM
[18] = second compound 3.16 µM, first compound 0.316 µM
[19] = second compound 3.16 µM, first compound 1 µM
[20] = second compound 3.16 µM, first compound 3.16 µM
[21] = second compound 10 µM, first compound 0.0316 µM
[22] = second compound 10 µM, first compound 0.1 µM
[23] = second compound 10 µM, first compound 0.316 µM
[24] = second compound 10 µM, first compound 1 µM
[25] = second compound 10 µM, first compound 3.16 µM
[26] = second compound 0.1 µM, first compound 10 µM
[27] = second compound 0.316 µM, first compound 10 µM
[28] = second compound 1 µM, first compound 10 µM
[29] = second compound 3.16 µM, first compound 10 µM
[30] = second compound 10 µM, first compound 10 µM
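Note: spheroids exposed to compounds for 7 days.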
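Throughout, for viability, T/C: 100% = DMSO vehicle control viability.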

Row | SMILES | IC50 (second compound 0.1 µM) [µM] | IC50 (second compound 0.316 µM) [µM] | IC50 (second compound 1 µM) [µM] | IC50 (second compound 3.16 µM) [µM] | IC50 (second compound 10 µM) [µM] | viability, T/C [1] [%] | viability, T/C [2] [%] | viability, T/C [3] [%] | viability, T/C [4] [%] | viability, T/C [5] [%] | viability, T/C [6] [%] | viability, T/C [7] [%] | viability, T/C [8] [%] | viability, T/C [9] [%] | viability, T/C [10] [%] | viability, T/C [11] [%] | viability, T/C [12] [%] | viability, T/C [13] [%] | viability, T/C [14] [%] | viability, T/C [15] [%] | other results
1 | CC1COCCN1c1cc(-c2ccnn2C)c2ccnc(-c3ccn[nH]3)c2n1 (stereo not given) + COc1cc2nc(C)nc(NC(C)c3cc(N)cc(C(F)(F)F)c3)c2cc1OC1CCOC1 | > 3.16 | > 3.16 | 0.152 | 0.0692 | 0.0123 | 122 | 67.6 | 55 | 55.8 | 40.1 | 112 | 58.3 | 58.1 | 52.7 | 38.8 | 80.4 | 61.5 | 28.3 | 34.8 | 27.1 | viability, T/C (second compound 0.1 µM, first compound 0.01 µM): 106%; viability, T/C (second compound 0.316 µM, first compound 0.01 µM): 112%; viability, T/C (second compound 1 µM, first compound 0.01 µM): 74.6%; viability, T/C (second compound 3.16 µM, first compound 0.01 µM): 130%; viability, T/C [16]: 97.9%; viability, T/C [17]: 27.4%; viability, T/C [18]: 27.5%; viability, T/C [19]: 23.9%; viability, T/C [20]: 19.8%; viability, T/C (second compound 10 µM, first compound 0.01 µM): 56.6%; viability, T/C [21]: 21.1%; viability, T/C [22]: 7.19%; viability, T/C [23]: 3.93%; viability, T/C [24]: 2.81%; viability, T/C [25]: 0.97%
2 | CC1OCC2(CCN(c3cnc(Sc4ccnc(N)c4Cl)c(N)n3)CC2)C1N (stereo not given) + COc1cc2nc(C)nc(NC(C)c3cc(N)cc(C(F)(F)F)c3)c2cc1OC1CCOC1 | > 10 | 6.76 | 7.2 | 5.48 | 0.557 | 88.2 | 83.7 | 74 | 75.6 | 100 | 87.4 | 89 | 88 | 95.9 | 95.5 | 89 | 88 | 81.7 | 91.3 | 89.4 | viability, T/C [26]: 58%; viability, T/C [27]: 28.8%; viability, T/C [28]: 34.7%; viability, T/C [16]: 93.9%; viability, T/C [17]: 104%; viability, T/C [18]: 101%; viability, T/C [19]: 98.5%; viability, T/C [20]: 91.6%; viability, T/C [29]: 4.35%; viability, T/C [21]: 76.5%; viability, T/C [22]: 68.7%; viability, T/C [23]: 63.1%; viability, T/C [24]: 37.4%; viability, T/C [25]: 8.46%; viability, T/C [30]: 0.53%
3 | Cn1nccc1Nc1nccc(-c2cc3c(s2)C(C)(C)N(CCN2CCOCC2)C3=O)n1 + COc1cc2nc(C)nc(NC(C)c3cc(N)cc(C(F)(F)F)c3)c2cc1OC1CCOC1 | > 10 | > 10 | > 10 | 10 | 0.0952 | 105 | 120 | 146 | 102 | 83.1 | 110 | 112 | 126 | 81 | 83.8 | 114 | 117 | 121 | 79.3 | 80.9 | viability, T/C [26]: 72.2%; viability, T/C [27]: 67.7%; viability, T/C [28]: 65.7%; viability, T/C [16]: 103%; viability, T/C [17]: 130%; viability, T/C [18]: 85.7%; viability, T/C [19]: 49.7%; viability, T/C [20]: 62.5%; viability, T/C [29]: 45.6%; viability, T/C [21]: 70.3%; viability, T/C [22]: 49.1%; viability, T/C [23]: 2.05%; viability, T/C [24]: 0.83%; viability, T/C [25]: 0.32%; viability, T/C [30]: 0.87%
